Data as given in patent US9701664B2, “Fused 1,4-dihydrodioxin derivatives as inhibitors of heat shock transcription factor 1” (Cancer Research Technology Limited, priority 2013, dated 2017).
Structures can show the parent of a compound that is named as a salt. Where two headings read alike, the source gives them in different places.

Assays:
HSP72 in U2OS cells = test: Cell-based ELISA (Cellisa) assay, U2OS cells: inhibition of 17-AAG-induced HSP72; settings: U2OS cells (Examples 1-168)
U2OS cells = test: Titre Blue cell viability assay, U2OS cells; assay type: cell-based

Row | Compound | IC50 (HSP72 in U2OS cells; Homo sapiens) [nM] | IC50 (U2OS cells; Homo sapiens, U2OS) [nM] | IC50 (HSP72 in U2OS cells) [nM] | IC50 (U2OS cells) [nM]
1 | Cc1ccc(NC(=O)c2ccc3c(c2)OCCO3)cc1NC(=O)c1ccc2cnc(OCCN3CCCC3)cc2c1 [Example 156, N-(5-(2,3-dihydrobenzo[b][1,4]dioxine-6-carboxamido)-2-methylphenyl)-3-(2-(pyrrolidin-1-yl)ethoxy)isoquinoline-6-carboxamide] | 161 | 79 |  | 
2 | Cc1ccc(NC(=O)c2ccc3c(c2)OCCO3)cc1NC(=O)c1ccc2nc(OC3CCN(C)CC3)ccc2c1 [Example 50, N-(5-(2,3-dihydrobenzo[b][1,4]dioxine-6-carboxamido)-2-methylphenyl)-2-((1-methylpiperidin-4-yl)oxy)quinoline-6-carboxamide] | 3 | 10 |  | 
3 | Cc1ccc2cc(C(=O)Nc3cc(NC(=O)c4ccc5c(c4)OCCO5)ccc3CO)ccc2n1 [Example 167, N-(5-(2,3-dihydrobenzo[b][1,4]dioxine-6-carboxamido)-2-(hydroxymethyl)phenyl)-2-methylquinoline-6-carboxamide] | 176 | 86 |  | 
4 | Cc1ccc(NC(=O)c2ccc3c(c2)OCCO3)cc1NC(=O)c1cnc2cccc(NCCN3CCCC3)c2c1 [Example 148, N-(5-(2,3-dihydrobenzo[b][1,4]dioxine-6-carboxamido)-2-methylphenyl)-5-((2-(pyrrolidin-1-yl)ethyl)amino)quinoline-3-carboxamide] | 88 | 104 |  | 
5 | CNCCCOc1ccc2cc(C(=O)Nc3cc(NC(=O)c4ccc5c(c4)OCCO5)ccc3C)ccc2n1 [Example 76, N-(5-(2,3-dihydrobenzo[b][1,4]dioxine-6-carboxamido)-2-methylphenyl)-2-(3-(methylamino)propoxy)quinoline-6-carboxamide] | 21 | 10 |  | 
6 | Cc1ccc(NC(=O)c2ccc3c(c2)OCCO3)cc1NC(=O)c1ccc2nc(N)sc2c1 [Example 91, 2-amino-N-(5-(2,3-dihydrobenzo[b][1,4]dioxine-6-carboxamido)-2-methylphenyl)benzo[d]thiazole-6-carboxamide] | 70 | 115 |  | 
7 | tert-butyl (44(64(5-(2,3-dihydrobenzo[b][1,4]dioxine-6-carboxamido)-2-methylphenyl)carbamoyl)quinolin-2-yl)oxy)butyl)carbamate [Example 164] |  |  | 1540 | 859
8 | Cc1ccc(NC(=O)c2ccc3c(c2)OCCO3)cc1NC(=O)c1cnc2cccc(CCN3CCCC3)c2c1 [Example 158, N-(5-(2,3-dihydrobenzo[b][1,4]dioxine-6-carboxamido)-2-methylphenyl)-5-(2-(pyrrolidin-1-yl)ethyl)quinoline-3-carboxamide] | 239 | 202 |  | 
9 | Cc1ccc2cc(C(=O)Nc3cccc(NC(=O)c4ccc5c(c4)OCCO5)c3)ccc2n1 [Example 113, N-(3-(2,3-dihydrobenzo[b][1,4]dioxine-6-carboxamido)phenyl)-2-methylquinoline-6-carboxamide] | 160 | 117 |  | 
10 | Cc1ccc(NC(=O)c2ccc3c(c2)OCCO3)cc1NC(=O)c1ccc2nc(O[C@@H]3CCN(C)C3)ccc2c1 [Example 49, (R)—N-(5-(2,3-dihydrobenzo[b][1,4]dioxine-6-carboxamido)-2-methylphenyl)-2-((1-methylpyrrolidin-3-yl)oxy)quinoline-6-carboxamide] | 2 | 8 |  | 
11 | COCc1ccc2cc(C(=O)Nc3cc(NC(=O)c4ccc5c(c4)OCCO5)ccc3C)ccc2n1 [Example 137, N-(5-(2,3-dihydrobenzo[b][1,4]dioxine-6-carboxamido)-2-methylphenyl)-2-(methoxymethyl)quinoline-6-carboxamide] | 15 | 26 |  | 
12 | Cc1ccc(NC(=O)c2ccc3c(c2)OCCO3)cc1NC(=O)c1ccc2nc(CCN(C)C)ccc2c1 [Example 69, N-(5-(2,3-dihydrobenzo[b][1,4]dioxine-6-carboxamido)-2-methylphenyl)-2-(2-(dimethylamino)ethyl)quinoline-6-carboxamide] | 57 | 305 |  | 
13 | Cc1ccc(NC(=O)c2ccc3c(c2)OCCO3)cc1NC(=O)c1ccc2nc(OCCN3CCOCC3)ccc2c1 [Example 66, N-(5-(2,3-dihydrobenzo[b][1,4]dioxine-6-carboxamido)-2-methylphenyl)-2-(2-morpholinoethoxy)quinoline-6-carboxamide] | 30 | 40 |  | 
14 | Cc1ccc(NC(=O)c2ccc3c(c2)OCCO3)cc1NC(=O)c1ccc2nc(CN3CCCC3)ccc2c1 [Example 67, N-(5-(2,3-dihydrobenzo[b][1,4]dioxine-6-carboxamido)-2-methylphenyl)-2-(pyrrolidin-1-ylmethyl)quinoline-6-carboxamide formate] | 35 | 33 |  | 
15 | Cc1ccc(NC(=O)c2ccc3c(c2)OCCO3)cc1NC(=O)c1ccc2nc(CCN3CCCC3)ccc2c1 [Example 59, N-(5-(2,3-dihydrobenzo[b][1,4]dioxine-6-carboxamido)-2-methylphenyl)-2-(2-(pyrrolidin-1-yl)ethyl)quinoline-6-carboxamide] | 15 | 410 |  | 
16 | Cc1ccc(NC(=O)c2ccc3c(c2)OCCO3)cc1NC(=O)c1ccc(O)cc1 [Example 93, N-(3-(4-hydroxybenzamido)-4-methylphenyl)-2,3-dihydrobenzo[b][1,4]dioxine-6-carboxamide] | 2460 | 798 |  | 
17 | Cc1ccc(NC(=O)c2ccc3c(c2)OCCO3)cc1NC(=O)c1ccc2nc(COCC3CCCO3)ccc2c1 (centres unmarked) [Example 146, N-(5-(2,3-dihydrobenzo[b][1,4]dioxine-6-carboxamido)-2-methylphenyl)-2-(((tetrahydrofuran-2-yl)methoxy)methyl)quinoline-6-carboxamide] | 77 | 20 |  | 
18 | Cc1ccc(NC(=O)c2ccc3c(c2)OCCO3)cc1NC(=O)c1cnc2cnccc2c1 [Example 44, N-(5-(2,3-dihydrobenzo[b][1,4]dioxine-6-carboxamido)-2-methylphenyl)-1,7-naphthyridine-3-carboxamide] | 11 | 24 |  | 
19 | CNc1ccc2cc(C(=O)Nc3cc(NC(=O)c4ccc5c(c4)OCCO5)ccc3C)ccc2n1 [Example 79, N-(5-(2,3-dihydrobenzo[b][1,4]dioxine-6-carboxamido)-2-methylphenyl)-2-(methylamino)quinoline-6-carboxamide] | 70 | 54 |  | 
20 | Cc1ccc(NC(=O)c2ccc3c(c2)OCCO3)cc1NC(=O)c1ccc2nc(OCCN3CCCC3C)ccc2c1 (centres unmarked) [Example 61, N-(5-(2,3-dihydrobenzo[b][1,4]dioxine-6-carboxamido)-2-methylphenyl)-2-(2-(2-methylpyrrolidin-1-yl)ethoxy)quinoline-6-carboxamide] | 16 | 18 |  | 
21 | Cc1ccc(NC(=O)c2ccc3c(c2)OCCO3)cc1NC(=O)c1cnc2ccccc2c1 [Example 47, N-(5-(2,3-dihydrobenzo[b][1,4]dioxine-6-carboxamido)-2-methylphenyl)quinoline-3-carboxamide] | 4 | 12 |  | 
22 | COCc1ccc(NC(=O)c2ccc3c(c2)OCCO3)cc1NC(=O)c1ccc2nc(C)ccc2c1 [Example 166, N-(5-(2,3-dihydrobenzo[b][1,4]dioxine-6-carboxamido)-2-(methoxymethyl)phenyl)-2-methylquinoline-6-carboxamide] | 298 | 68 |  | 
